Source: US9732320B2, “Selective differentiation, identification, and modulation of human TH17 cells” (THE BRIGHAM AND WOMEN'S HOSPITAL, INC., priority 2008, dated 2017)

Legend:
human naïve CD4+ T cells = experiment: Differentiation assay: naïve CD4+ T cells stimulated with anti-CD3/anti-CD28 plus cytokines for seven days; ELISA and intracytoplasmic staining; format: cell-based; conditions: for IFN-β secretion from naïve T cells / IL-17A secretion from naïve CD4+ T cells: ELISA; for IL-17A secretion from naïve CD4+ T cells: serum-free medium
Description: (§1) Error bars represent the standard deviation among three independent experiments using T cells from three unrelated subjects.
(§2) PBMCs were obtained from the peripheral blood of healthy subjects or from cord blood (AllCells) in compliance with institutional IRB protocols. CD4+ T cells were subsequently isolated by negative selection using magnetic beads (Miltenyi Biotech Inc., Auburn, Calif.). Naïve (CD25^− CD62L^+ CD45RA^hi) and central memory (CD25^− CD62L^+ CD45RA^−) CD4^+ T cells were obtained by staining with the following antibodies: CD62L-FITC, CD4-PerCP, CD45RA-PE-Cy7, CD25-APC-Cy7 (BD Pharmingen, San Diego, Calif.) and were sorted on a FACS Aria (BD Biosciences, Palo Alto, Calif.).
(§3) Naïve or central memory CD4^+ T cells were stimulated with plate-bound anti-CD3 and soluble CD28 monoclonal antibodies (1 μg/ml, each) in serum-free X-VIVO15 medium (Biowhittaker Inc., Walkersville, Md.) and cytokines (IL-6, 25 ng/ml; TGF-β, 5 ng/ml; IL-1β, 12.5 ng/ml; IL-21, 25 ng/ml; IL-23, 25 ng/ml) for a period of seven days, at which point supernatants were collected and tested by ELISA for IFN-β (BD Biosciences) or IL-17A (eBioscience, San Diego, Calif.) using paired antibodies. Intracytoplasmic staining was performed using standard methodologies and anti-IL-17-APC (R&D Systems, Minneapolis, Minn.) and anti-IFN-β-PE (BD Biosciences) antibodies.

naïve human CD4+ T cells = experiment: Quantitative RT-PCR of stimulated naïve CD4+ T cells from peripheral blood; format: cell-based; conditions: for IL-22 mRNA: absence of exogenous IL-23; for IL-23 receptor up-regulation: stimulated naïve CD4+ T cells
Experimental: The mean fold-induction (relative to T cells stimulated in the absence of exogenous cytokines) and standard error among three independent experiments using T cells from three unrelated subjects are represented.
as §3
All primers and probes were obtained from Applied Biosystems (Foster City, Calif.), and used according to standard methodologies.

naïve cord blood T cells = experiment: Quantitative RT-PCR of stimulated naïve CD4+ T cells from cord blood; format: cell-based, human; conditions: seven days
Experimental: Sorted T cells were stimulated for seven days in the presence of the indicated cytokines, at which point RNA was collected and levels of IL-17A and RORC2 were measured by quantitative RT-PCR. Mean expression and standard error are reported based on three independent experiments using cord blood from three distinct donors.
as §2
as §3, with “Intracytoplasmic staining was performed using standard methodologies and anti-IL-17-APC (R&D Systems, Minneapolis, Minn.) and anti-IFN-β-PE (BD Biosciences) antibodies.” left out

[1] = test system: human central memory CD4+ T cells; experiment: Differentiation assay: central memory CD4+ T cells (TCM) stimulated with anti-CD3/anti-CD28 plus cytokines for seven days; ELISA; format: cell-based
Description: as §1, §2, §3

BLT1 = BLT1 (Homo sapiens, UniProt Q15722); conditions: Richards et al. 1989; cited from earlier work
TH17 cells = experiment: Chemotaxis chamber assay, TH17 cells; format: cell-based
Experimental: (§4) TH17 or TH1 cells alone or together with different concentrations of LTB4 inhibitor, U75-302, were added to the upper wells of chemotaxis chambers with 10^−8M of LTB4 in the lower wells. Cells were kept at 37° C. in 10% CO2 for 2 hr. Cells from the lower chamber were then stained with anti-CD4 antibody and stimulated for 4 hr with PMA/ionomycin in the presence of Golgi Stop. Cells were permeabilized and stained intracellularly for IL-17 or IFN-γ. The chemotactic index was calculated by dividing the number of CD4^+ IL-17^+ (for TH17 cells) or CD4^+ IFN-γ+ (for TH1 cells) migrated cells in LTB4-containing wells by the number of CD4^+ IL-17^+ (for TH17 cells) or CD4^+ IFN-γ+ (for Th1 cells) cells that migrated spontaneously to media alone.

TH1 cells = experiment: Chemotaxis chamber assay, TH1 cells; format: cell-based; conditions: 10^−8M of LTB4 in the lower wells, 2 hr
Experimental: as §4

Sequence of BLT1 (Q15722 whole entry, species assumed): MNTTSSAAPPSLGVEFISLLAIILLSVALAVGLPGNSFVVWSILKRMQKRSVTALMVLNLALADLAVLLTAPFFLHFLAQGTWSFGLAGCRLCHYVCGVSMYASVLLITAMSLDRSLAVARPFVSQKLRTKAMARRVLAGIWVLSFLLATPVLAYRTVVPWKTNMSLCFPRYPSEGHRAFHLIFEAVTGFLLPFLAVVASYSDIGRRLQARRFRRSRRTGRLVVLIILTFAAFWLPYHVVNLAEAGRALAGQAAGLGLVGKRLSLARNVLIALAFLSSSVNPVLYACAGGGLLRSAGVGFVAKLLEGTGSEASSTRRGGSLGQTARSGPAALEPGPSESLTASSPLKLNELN

IL-21: cytokine, 25 ng/ml
TH17 differentiation from naïve CD4+ T cells (human naïve CD4+ T cells): does not induce human TH17 differentiation | IFN-β secretion from naïve T cells (human naïve CD4+ T cells): induced significant amounts of IFN-β secretion | IL-17A secretion from naïve CD4+ T cells (human naïve CD4+ T cells): unable to synergize with endogenous levels of TGF-β to promote IL-17 secretion | IL-21 mRNA (naïve human CD4+ T cells; naïve CD4+ T cells): significantly up-regulated IL-21 | IL-22 mRNA (naïve human CD4+ T cells; naïve CD4+ T cells): induced IL-22 mRNA levels | IL-23 receptor up-regulation (naïve human CD4+ T cells): induced IL-23 receptor up-regulation | RORC2 mRNA (naïve cord blood T cells): modestly induced RORC2

IL-1β: cytokine, 12.5 ng/ml
IFN-β secretion from naïve T cells (human naïve CD4+ T cells): induced significant amounts of IFN-β secretion | IL-17A secretion from naïve CD4+ T cells (human naïve CD4+ T cells): failed, however, to induce IL-17A secretion | IL-17A secretion from TCM [1]: induced the greatest amount of IL-17A secretion | IL-21 mRNA (naïve human CD4+ T cells; naïve CD4+ T cells): induced even greater amounts of IL-21 mRNA | IL-23 receptor up-regulation (naïve human CD4+ T cells): induced IL-23 receptor up-regulation

IL-6: cytokine, 25 ng/ml
IFN-β secretion from naïve T cells (human naïve CD4+ T cells): induced significant amounts of IFN-β secretion | IL-17A secretion from TCM [1]: little effect | Inhibition of the FoxP3 induction by TGF-β (naïve human CD4+ T cells; cytokine added with TGF-β): inhibited | IL-23 receptor up-regulation (naïve human CD4+ T cells): induced IL-23 receptor up-regulation

TGF-β: cytokine, 5 ng/ml; doses from 1 ng/ml to 100 ng/ml examined
TH17 differentiation from naïve CD4+ T cells (human naïve CD4+ T cells): all differentiation/proliferation was suppressed | IL-21 mRNA (naïve human CD4+ T cells; naïve CD4+ T cells): suppressed the expression of IL-21 and IL-22 mRNA induced by IL-21 | IL-22 mRNA (naïve human CD4+ T cells; naïve CD4+ T cells): suppressed the expression of IL-21 and IL-22 mRNA induced by IL-21 | FoxP3 expression (naïve human CD4+ T cells; naïve CD4+ T cells, seven days): induced | T-bet mRNA expression (naïve human CD4+ T cells; naïve CD4+ T cells, seven days): suppresses the induction of T-bet by IL-21 | IL-23 receptor up-regulation (naïve human CD4+ T cells): not

CCCCC/C=C\C[C@@H](O)/C=C/c1cccc(C[C@@H](O)CCCCO)n1 [U-75302, 6-(6-(3R-hydroxy-1E,5Z-undecadien-1-yl)-2-pyridinyl)-1,5S-hexandiol]
Binding to BLT1 (BLT1): specifically binds BLT1 | Block of LTB4-induced migration of Th17 cells (TH17 cells; different doses of antagonist in the upper wells): blocked in a dose dependant manner

CCCCC/C=C\C[C@@H](O)/C=C/C=C/C=C\[C@@H](O)CCCC(=O)O [LTB4, Leukotriene B4]
Migration (chemotaxis) of TH1 cells (TH1 cells): not | Migration (chemotaxis) of TH17 cells (TH17 cells; 10^−8M of LTB4 in the lower wells, 2 hr): induced the selective migration

B1: IL-23: cytokine, 25 ng/ml (protein, UniProt Q9NPF7 20-189; P29460 23-328, looked up)
Interleukin-23 subunit alpha: RAVPGGSSPAWTQCQQLSQKLCTLAWSAHPLVGHMDLREEGDEETTNDVPHIQCGDGCDPQGLRDNSQFCLQRIHQGLIFYEKLLGSDIFTGEPSLLPDSPVGQLHASLLGLSQLLQPEGHHWETQQIPSLSPSQPWQRLLLRFKILRSLQAFVAVAARVFAHGAATLSP
Interleukin-12 subunit beta: IWELKKDVYVVELDWYPDAPGEMVVLTCDTPEEDGITWTLDQSSEVLGSGKTLTIQVKEFGDAGQYTCHKGGEVLSHSLLLLHKKEDGIWSTDILKDQKEPKNKTFLRCEAKNYSGRFTCWWLTTISTDLTFSVKSSRGSSDPQGVTCGAATLSAERVRGDNKEYEYSVECQEDSACPAAEESLPIEVMVDAVHKLKYENYTSSFFIRDIIKPDPPKNLQLKPLKNSRQVEVSWEYPDTWSTPHSYFSLTFCVQVQGKSKREKKDRVFTDKTSATVICRKNASISVRAQDRYYSSSWSEWASVPCS
IL-17A secretion from TCM [1]: modestly enhance IL-17A secretion
